Patent publication US20190159452A1, “ACTIVE COMPOUND COMBINATIONS COMPRISING A (THIO)CARBOXAMIDE DERIVATIVE AND A FUNGICIDAL COMPOUND” (BAYER CROPSCIENCE AKTIENGESELLSCHAFT, priority 2015, published 2019)

Legend:
[1] = log P by HPLC on a reversed-phase column (C18), EEC Directive 79/831 Annex V.A8; type: physicochemical; settings: for chromatographic logP: reversed-phase C18 HPLC column, printed after the preparation step, method not restated
Experimental: In table 1, the log P values were determined in accordance with EEC Directive 79/831 Annex V.A8 by HPLC (High Performance Liquid Chromatography) on a reversed-phase column (C18), using the method described below:
Temperature: 40° C.; Mobile phases: 0.1% aqueous formic acid and acetonitrile; linear gradient from 10% acetonitrile to 90% acetonitrile.
Calibration was carried out using unbranched alkan-2-ones (comprising 3 to 16 carbon atoms) with known log P values (determination of the log P values by the retention times using linear interpolation between two successive alkanones). lambda-max-values were determined using UV-spectra from 200 nm to 400 nm and the peak values of the chromatographic signals.

[2] = tested on: Septoria tritici; experiment: in vivo preventive Septoria tritici test (wheat); settings: 21 days after inoculation
Source text: (§1) A synergistic effect of fungicides is always present when the fungicidal activity of the active compound combinations exceeds the total of the activities of the active compounds when applied individually. The expected activity for a given combination of two active compounds can be calculated as follows (cf. Colby, S. R., “Calculating Synergistic and Antagonistic Responses of Herbicide Combinations”, Weeds 1967, 15, 20-22): • If • X is the efficacy when active compound A is applied at an application rate of m ppm (or g/ha), • Y is the efficacy when active compound B is applied at an application rate of n ppm (or g/ha), • E is the efficacy when the active compounds A and B are applied at application rates of m and n ppm (or g/ha), respectively, and • then
(§2) The degree of efficacy, expressed in % is denoted. 0% means an efficacy which corresponds to that of the control while an efficacy of 100% means that no disease is observed.
(§3) Solvent: 49 parts by weight of N,N-dimethylacetamide
(§4) Emulsifier: 1 part by weight of alkylaryl polyglycol ether
To produce a suitable preparation of active compound, 1 part by weight of active compound or active compound combination is mixed with the stated amounts of solvent and emulsifier, and the concentrate is diluted with water to the desired concentration. […]
The test is evaluated 21 days after the inoculation. […]

[3] = tested on: Puccinia triticina; experiment: in vivo preventive Puccinia triticina test (wheat); settings: 8 days after inoculation
Source text: as §1, §2, §3, §4
(§5) To produce a suitable preparation of active compound, 1 part by weight of active compound or active compound combination is mixed with the stated amounts of solvent and emulsifier, and the concentrate is diluted with water to the desired concentration.
(§6) To test for preventive activity, young plants are sprayed with the preparation of active compound or active compound combination at the stated rate of application.
(§7) After the spray coating has been dried, the plants are sprayed with a spore suspension of Puccinia triticina. The plants remain for 48 hours in an incubation cabinet at approximately 20° C. and a relative atmospheric humidity of approximately 100%.
The plants are placed in the greenhouse at a temperature of approximately 20° C. and a relative atmospheric humidity of approximately 80%.
(§8) The test is evaluated 8 days after the inoculation. 0% means an efficacy which corresponds to that of the untreated control, while an efficacy of 100% means that no disease is observed.

[4] = tested on: Blumeria graminis f.sp. hordei; experiment: in vivo preventive Blumeria test (barley); settings: 7 days after inoculation
Source text: as §1, §2, §3, §4, §5
To test for preventive activity, young plants are sprayed with the preparation of active compound or active compound combination at the stated rate of application. After the spray coating has been dried, the plants are dusted with spores of Blumeria graminis f.sp. hordei.
The plants are placed in the greenhouse at a temperature of approximately 18° C. and a relative atmospheric humidity of approximately 80% to promote the development of mildew pustules.
The test is evaluated 7 days after the inoculation. 0% means an efficacy which corresponds to that of the untreated control, while an efficacy of 100% means that no disease is observed.

[5] = tested on: Pyrenophora teres; experiment: in vivo preventive Pyrenophora teres test (barley); settings: 8 days after inoculation
Source text: as §1, §2, §3, §4, §5, §6
as §7, with “Pyrenophora teres.” for “Puccinia triticina.”, “100%. The plants are placed in the greenhouse at a temperature of approximately 20° C. and a relative atmospheric humidity of approximately 80%.” for “100%.”
as §8

[6] = tested on: Leptosphaeria nodorum; experiment: in vitro-test Leptosphaeria nodorum (microtiter plate, growth by extinction at 620 nm); type: cell-based; settings: 2.5 ppm a.i., 3-5 days incubation
Source text: A synergistic effect of fungicides is always present when the fungicidal activity of the active compound combinations exceeds the total of the activities of the active compounds when applied individually. The expected activity for a given combination of two active compounds can be calculated as follows (cf. Colby, S. R., “Calculating Synergistic and Antagonistic Responses of Herbicide Combinations”, Weeds 1967, 15, 20-22): • If • X is the efficacy when active compound A is applied at an application rate of m ppm (or g/ha), • Y is the efficacy when active compound B is applied at an application rate of n ppm (or g/ha), • E is the efficacy when the active compounds A and B are applied at application rates of m and n ppm (or g/ha), respectively, and • then […]
The resulting concentrations of the test compounds or compound combinations in the microtiter wells are such as 50, 10, 2 and 0.4 ppm. […] With the aid of a photometer the extinction in all wells is measured at the wavelength of 620 nm. […]
At the end of the incubation time the growth of the test organisms is measured again photometrically at the wavelength of 620 nm. […] 0% efficacy means, the difference between the two extinction values is equal or even higher than of the untreated control, 100% efficacy means, no growth of the test organism is detected

[7] = tested on: Septoria tritici; experiment: in vitro-test Septoria tritici (microtiter plate, growth by extinction at 620 nm); type: cell-based
Source text: as §1
Wells of 96-well microtiter plates are filled with 10 μl of a solution of the test compounds or compound combinations in methanol together with the emulsifier alkylaryl polyglycol ether. Thereafter, the solvent is evaporated in a hood. At the next step, into each well 100 μl of liquid potato dextrose medium is given, that has been amended with an appropriate concentration of spores or mycelium suspension of the test fungus.
The resulting concentrations of the test compounds or compound combinations in the microtiter wells are such as 50, 10, 2 and 0.4 ppm. The resulting concentration of the emulsifier in all wells is constantly 300 ppm. With the aid of a photometer the extinction in all wells is measured at the wavelength of 620 nm.
The microtiter plates are then transferred for 3-5 days onto a shaker at 20° C. and 85% relative humidity.
At the end of the incubation time the growth of the test organisms is measured again photometrically at the wavelength of 620 nm. The difference between the two extinctions values (taken before and after incubation) is proportional to the growth of the test organism. 0% efficacy means, the difference between the two extinction values is equal or even higher than of the untreated control, 100% efficacy means, no growth of the test organism is detected

[8] = Table B1, 30 ppm a.i., wheat, preventive
[9] = 0.1 ppm a.i., 3-5 days incubation

## Cc1ccc(S(=O)(=O)n2cc(F)c(N)nc2=O)cc1 [5-fluoro-4-imino-1-(p-tolylsulfonyl)pyrimidin-2-one]
[1]
  chromatographic logP: 1.45

## Cc1ccc(S(=O)(=O)n2cc(F)c(=N)n(C)c2=O)cc1 [(B1), 5-fluoro-4-imino-3-methyl-1-[(4-methylphenyl)sulfonyl]-3,4-dihydropyrimidin-2(1H)-one]
[1]
  chromatographic logP: 1.26
[2]; 30 ppm a.i.
  Efficacy in % found: 0%
[3]; [8]
  Efficacy in % found: 0%

## CC(C)C(O)(Cn1cncn1)c1ccc(Oc2ccc(Cl)cc2)cc1C(F)(F)F (centres unmarked) [(B2), 2-[4-(4-chlorophenoxy)-2-(trifluoromethyl)phenyl]-3-methyl-1-(1H-1,2,4-triazol-1-yl)butan-2-ol]
[3]; Table B2, 30 ppm a.i.
  Efficacy in % found: 0%
[3]; Table B2, 50 ppm a.i.
  Efficacy in % found: 10%
[3]; Table B2, 100 ppm a.i.
  Efficacy in % found: 30%
[3]; Table B2, 200 ppm a.i.
  Efficacy in % found: 40%
[4]; 30 ppm a.i.
  Efficacy in % found: 0%
[4]; 50 ppm a.i.
  Efficacy in % found: 30%
[4]; 60 ppm a.i.
  Efficacy in % found: 60%
[4]; 100 ppm a.i.
  Efficacy in % found: 70%
[5]; 50 ppm a.i.
  Efficacy in % found: 22%
[5]; 60 ppm a.i.
  Efficacy in % found: 44%
[5]; 100 ppm a.i.
  Efficacy in % found: 56%
[6]
  Efficacy in % found: 1%
[7]; [9]
  Efficacy in % found: 0%
[7]; 0.3 ppm a.i.
  Efficacy in % found: 6%
[7]; 0.6 ppm a.i.
  Efficacy in % found: 0%

## CC(C)c1ccc(Cl)cc1CN(C(=O)c1c(C(F)F)nn(C)c1F)C1CC1 [Compound A5, N-(5-chloro-2-isopropylbenzyl)-N-cyclopropyl-3-(difluoromethyl)-5-fluoro-1-methyl-1H-pyrazole-4-carboxamide]
[2]; 10 ppm a.i.
  Efficacy in % found: 29%
[3]; [8]
  Efficacy in % found: 75%
[3]; Table B2, 5 ppm a.i.
  Efficacy in % found: 30%
[3]; Table B2, 10 ppm a.i.
  Efficacy in % found: 40%
[3]; Table B2, 20 ppm a.i., wheat, preventive
  Efficacy in % found: 70%
[4]; 5 ppm a.i.
  Efficacy in % found: 0%
[4]; 10 ppm a.i.
  Efficacy in % found: 20%
[4]; 20 ppm a.i., barley, preventive
  Efficacy in % found: 40%
[5]; 5 ppm a.i.
  Efficacy in % found: 44%
[5]; 10 ppm a.i., barley, preventive
  Efficacy in % found: 67%
[6]
  Efficacy in % found: 36%
[7]; [9]
  Efficacy in % found: 65%

## N-cyclopropyl-3-(difluoromethyl)-5-fluoro-N-(2-isopropylbenzyl)-1-methyl-1H-pyrazole-4-carbothio-amide [Compound A20]
[1]
  logP: 4.36
